Laboratory results taken from US11130769B2 (Prelude Therapeutics Incorporated, priority 2018, dated 2021).

How the values were obtained:
H929 cells = test: Cell viability assay (H929 10 FBS); format: cell-based; details: Homo sapiens, NCI-H929, 24 hours, read-out: H929_10FBS IC50
Summary of the method: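 ATP-based luminescence (CellTiter-Glo or ATPlite 1 Step, 30-60 min at RT) gauged viability of H929 myeloma cells after 24 h compound treatment at 37 °C. Cells plated at 4000 per well in 10% FBS RPMI 1640 supplemented with pyruvate, HEPES and glucose.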

MCL-1 = MCL-1 (Homo sapiens (Human), UniProt Q07820); test: Cell free Mcl-1:Bim affinity assay (fluorescence polarization competition); format: binding; details: 15 nM MCL-1, 5 nM FITC-Bim, 1 hour at room temperature; class symbols; read-out: BIM_Ki
Summary of the method: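 Fluorescence polarization competition: 10-point 3-fold compound dilutions displaced 5 nM FITC-Bim from 15 nM MCL-1 over 1 h at room temperature. Ki was derived from the fitted IC50 using the Nikolovska-Coleska equation, with percent inhibition normalized to DMSO and positive controls.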

Sequence of MCL-1 (Q07820 whole entry): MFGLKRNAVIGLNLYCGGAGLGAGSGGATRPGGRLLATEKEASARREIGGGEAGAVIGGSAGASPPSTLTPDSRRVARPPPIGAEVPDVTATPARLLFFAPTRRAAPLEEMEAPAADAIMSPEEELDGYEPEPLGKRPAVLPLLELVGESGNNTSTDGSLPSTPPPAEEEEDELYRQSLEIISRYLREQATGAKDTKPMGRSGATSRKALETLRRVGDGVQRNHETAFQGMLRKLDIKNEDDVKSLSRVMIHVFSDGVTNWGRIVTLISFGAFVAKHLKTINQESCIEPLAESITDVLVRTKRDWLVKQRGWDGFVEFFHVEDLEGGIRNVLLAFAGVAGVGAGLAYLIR

Row | SMILES | IC50 (H929 cells) | Ki (MCL-1)
1 | CO[C@@H]1CCN(C(=O)O[C@H]2/C=C/CN(C)C(C)(C)C(=O)NS(=O)(=O)c3ccc4c(c3)N(C[C@@H]3CC[C@H]32)C[C@@]2(CCCc3cc(Cl)ccc32)CO4)C1 [Example 215, [(3R,6R,7S,8E,22S)-6′-Chloro-11,12,12-trimethyl-13,15,15-trioxo-spiro[20-oxa-15-thia-1,11,14-triazatetracyclo[14.7.2.03,6.019,24]pentacosa-8,16,18,24-tetraene-22,1′-tetralin]-7-yl] (3R)-3-methoxypyrrolidine-1-carboxylate] | < 500 nM | < 1 nM
2 | CN1C/C=C/[C@H](OC(=O)N2CCC2)[C@@H]2CC[C@H]2CN2C[C@@]3(CCCc4cc(Cl)ccc43)COc3ccc(cc32)S(=O)(=O)NC(=O)C1(C)C [Example 216, [(3R,6R,7S,8E,22S)-6′-Chloro-11,12,12-trimethyl-13,15,15-trioxo-spiro[20-oxa-15-thia-1,11,14-triazatetracyclo[14.7.2.03,6.019,24]pentacosa-8,16,18,24-tetraene-22,1′-tetralin]-7-yl]azetidine-1-carboxylate] | < 500 nM | < 1 nM
3 | COC1CN(C(=O)O[C@H]2/C=C/CN(C)C(C)(C)C(=O)NS(=O)(=O)c3ccc4c(c3)N(C[C@@H]3CC[C@H]32)C[C@@]2(CCCc3cc(Cl)ccc32)CO4)C1 [Example 217, [(3R,6R,7S,8E,22S)-6′-Chloro-11,12,12-trimethyl-13,15,15-trioxo-spiro[20-oxa-15-thia-1,11,14-triazatetracyclo[14.7.2.03,6.019,24]pentacosa-8,16,18,24-tetraene-22,1′-tetralin]-7-yl] 3-methoxyazetidine-1-carboxylate] | < 500 nM | < 1 nM
4 | CN(C(=O)O[C@H]1/C=C/CN(C)C(C)(C)C(=O)NS(=O)(=O)c2ccc3c(c2)N(C[C@@H]2CC[C@H]21)C[C@@]1(CCCc2cc(Cl)ccc21)CO3)[C@@H]1CCOC1 [Example 218, [(3R,6R,7S,8E,22S)-6′-Chloro-11,12,12-trimethyl-13,15,15-trioxo-spiro[20-oxa-15-thia-1,11,14-triazatetracyclo[14.7.2.03,6.019,24]pentacosa-8,16,18,24-tetraene-22,1′-tetralin]-7-yl] N-methyl-N-[(3R)-tetrahydrofuran-3-yl]carbamate] | < 500 nM | < 1 nM
5 | CCN1C/C=C/[C@H](O)[C@@H]2CC[C@H]2CN2C[C@@]3(CCCc4cc(Cl)ccc43)COc3ccc(cc32)S(=O)(=O)NC(=O)C1(C)C [Example 219, (3R,6R,7S,8E,22S)-6′-Chloro-7-hydroxy-11-ethyl-12,12-dimethyl-15,15-dioxo-spiro[20-oxa-15-thia-1,11,14-triazatetracyclo[14.7.2.03,6.019,24]pentacosa-8,16,18,24-tetraene-22,1′-tetralin]-13-one] | < 500 nM | 1 to 100 nM

The remaining lines, values ahead:

Row | IC50 (H929 cells) | Ki (MCL-1) | SMILES
6 | < 500 nM | < 1 nM | CCN1C/C=C/[C@H](OC(=O)NC2CCOCC2)[C@@H]2CC[C@H]2CN2C[C@@]3(CCCc4cc(Cl)ccc43)COc3ccc(cc32)S(=O)(=O)NC(=O)C1(C)C [Example 220, [(3R,6R,7S,8E,22S)-6′-Chloro-11-ethyl-12,12-dimethyl-13,15,15-trioxo-spiro[20-oxa-15-thia-1,11,14-triazatetracyclo[14.7.2.03,6.019,24]pentacosa-8,16,18,24-tetraene-22,1′-tetralin]-7-yl]N-tetrahydropyran-4-ylcarbamate]
7 | < 500 nM | < 1 nM | CCN1C/C=C/[C@H](OC(=O)N2CCOCC2)[C@@H]2CC[C@H]2CN2C[C@@]3(CCCc4cc(Cl)ccc43)COc3ccc(cc32)S(=O)(=O)NC(=O)C1(C)C [Example 221, [(3R,6R,7S,8E,22S)-6′-Chloro-11-ethyl-12,12-dimethyl-13,15,15-trioxo-spiro[20-oxa-15-thia-1,11,14-triazatetracyclo[14.7.2.03,6.019,24]pentacosa-8,16,18,24-tetraene-22,1′-tetralin]-7-yl]morpholine-4-carboxylate]
